Reference: ChEMBL document CHEMBL5331095, “Structure-activity relationship and biological evaluation of xanthine derivatives as PCSK9 inhibitors for the treatment of atherosclerosis” (Eur J Med Chem, 2023)
Values belong to the compound of their own block, whether it stands above or below them. Active and inactive are the calls of the source. The calls are words filed in the database; no cut-off is given here.

How the values were obtained:
[1] = biological target: Proprotein convertase subtilisin/kexin type 9 (Homo sapiens) (UniProt Q8NBP7); test: Inhibition of PCSK9 transcriptional activity in human HepG2 cells stably expressing luciferase reporter plasmid containing PCSK9 promoter assessed as decrease in luciferase activity at 10 ug/ml incubated for 24 hrs by Luciferase assay relative to control; type: cell-based; settings: dose 10.0 µg/ml
Sequence of Proprotein convertase subtilisin/kexin type 9 (Homo sapiens) (Q8NBP7 31-152 limits assumed): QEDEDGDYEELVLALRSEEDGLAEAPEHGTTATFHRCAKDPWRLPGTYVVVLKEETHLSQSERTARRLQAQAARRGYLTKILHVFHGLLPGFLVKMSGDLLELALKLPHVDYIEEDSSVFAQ
Sequence of Proprotein convertase subtilisin/kexin type 9 (Homo sapiens) (Q8NBP7 153-692 limits assumed): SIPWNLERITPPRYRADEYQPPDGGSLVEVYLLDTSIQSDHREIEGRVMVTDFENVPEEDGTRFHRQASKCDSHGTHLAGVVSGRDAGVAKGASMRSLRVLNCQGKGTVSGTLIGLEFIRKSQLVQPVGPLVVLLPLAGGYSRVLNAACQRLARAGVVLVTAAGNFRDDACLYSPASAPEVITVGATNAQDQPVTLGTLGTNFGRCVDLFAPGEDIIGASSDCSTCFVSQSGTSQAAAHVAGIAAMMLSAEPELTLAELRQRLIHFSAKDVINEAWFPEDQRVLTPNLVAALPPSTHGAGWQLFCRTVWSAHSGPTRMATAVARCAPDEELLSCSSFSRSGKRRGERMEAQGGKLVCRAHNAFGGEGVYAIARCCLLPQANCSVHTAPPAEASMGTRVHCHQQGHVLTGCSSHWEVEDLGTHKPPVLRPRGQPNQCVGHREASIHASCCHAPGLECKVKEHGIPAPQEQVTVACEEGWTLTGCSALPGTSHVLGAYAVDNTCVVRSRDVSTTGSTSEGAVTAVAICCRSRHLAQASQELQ

[2] = tested on: PCSK9 transcriptional activity; test: Therapeutic index, ratio of TC50 for cytotoxicity against human HepG2 cells to IC50 for inhibition of PCSK9 transcriptional activity in human HepG2 cells stably expressing luciferase reporter plasmid containing PCSK9 promoter; type: toxicity, cell-based
[3] = Cytotoxicity against human HepG2 cells assessed as reduction in cell viability by measuring toxic concentration incubated for 24 hrs by MTT assay; type: toxicity, cell-based; settings: read-out: TC50
Mus musculus [4] = test: Antiatherosclerotic activity in high-fat diet fed ApoE knockout C57BL/6 mouse assessed as decrease in high-fat diet induced increase in body weight at 30 mg/kg, IG for 8 weeks; type: functional, organism-based
Mus musculus [5] = test: Antiatherosclerotic activity in high-fat diet fed ApoE knockout C57BL/6 mouse assessed as decrease in serum total cholesterol level at 30 mg/kg, IG for 8 weeks by lipid profiling assay; type: functional, organism-based
Mus musculus [6] = test: Antiatherosclerotic activity in high-fat diet fed ApoE knockout C57BL/6 mouse assessed as decrease in serum triglyceride level at 30 mg/kg, IG for 8 weeks by lipid profiling assay; type: functional, organism-based
[7] = Acute toxicity in C57BL/6 mouse assessed as lethality upto 1000 mg/kg, IG and measured every day for 1 week; type: organism-based; settings: in vivo, po, time 1 weeks
[8] = biological target: Proprotein convertase subtilisin/kexin type 9 (Homo sapiens) (UniProt Q8NBP7); test: Inhibition of PCSK9 transcriptional activity in human HepG2 cells transfected with luciferase reporter plasmid containing truncated D2 (-1214 to -1 base pairs) human PCSK9 promoter region assessed as decrease in luciferase activity incubated for 24 hrs by Luciferase assay; type: cell-based
[9] = Acute toxicity in C57BL/6 mouse assessed as survival upto 1000 mg/kg, IG and measured every day for 1 week; type: organism-based; settings: in vivo, po, 168 h, time 1 weeks
[10] = biological target: Proprotein convertase subtilisin/kexin type 9 (Homo sapiens) (UniProt Q8NBP7); test: Inhibition of PCSK9 in human HepG2 cells assessed as fold increase in LDL-cholesterol cellular uptake by measuring DiI fluorescence at 25 uM incubated for 24 hrs by Dil-LDL staining based flow cytometry analysis relative to control; type: cell-based
Mus musculus [11] = test: In vivo inhibition of PCSK9 in high-fat diet fed ApoE knockout C57BL/6 mouse assessed as decrease in PCSK9 expression in serum at 30 mg/kg, IG for 8 weeks by ELISA; type: functional, organism-based
[12] = biological target: Proprotein convertase subtilisin/kexin type 9 (Homo sapiens) (UniProt Q8NBP7); test: Inhibition of PCSK9 transcriptional activity in human HepG2 cells transfected with luciferase reporter plasmid containing truncated D7 (-335 to -1 base pairs) human PCSK9 promoter region assessed as decrease in luciferase activity incubated for 24 hrs by Luciferase assay; type: cell-based
[13] = biological target: Proprotein convertase subtilisin/kexin type 9 (Homo sapiens) (UniProt Q8NBP7); test: Inhibition of PCSK9 in human HepG2 cells assessed as increase in LDLR protein expression level at 2.5 to 25 uM incubated for 24 hrs by Western blot analysis; type: cell-based; settings: dose 2.5-25 µM
Mus musculus [14] = test: In vivo inhibition of PCSK9 in high-fat diet fed ApoE knockout C57BL/6 mouse assessed as decrease in PCSK9 expression in liver at 30 mg/kg, IG for 8 weeks by Western blot analysis; type: functional, organism-based
[15] = biological target: Proprotein convertase subtilisin/kexin type 9 (Homo sapiens) (UniProt Q8NBP7); test: Inhibition of PCSK9 in human HepG2 cells assessed as decrease in PCSK9 protein expression level at 2.5 to 25 uM incubated for 24 hrs by Western blot analysis; type: cell-based; settings: dose 2.5-25 µM
[16] = biological target: Proprotein convertase subtilisin/kexin type 9 (Homo sapiens) (UniProt Q8NBP7); test: Inhibition of PCSK9 transcriptional activity in human HepG2 cells transfected with luciferase reporter plasmid containing truncated D5 (-392 to -1 base pairs) human PCSK9 promoter region assessed as decrease in luciferase activity incubated for 24 hrs by Luciferase assay; type: cell-based
Mus musculus [17] = test: Antiatherosclerotic activity in high-fat diet fed ApoE knockout C57BL/6 mouse assessed as decrease in VLDL fraction cholesterol level at 30 mg/kg, IG for 8 weeks by FPLC analysis; type: functional, organism-based
Mus musculus [18] = test: Antiatherosclerotic activity in high-fat diet fed ApoE knockout C57BL/6 mouse assessed as decrease in LDL cholesterol level at 30 mg/kg, IG for 8 weeks by FPLC analysis; type: functional, organism-based
Mus musculus [19] = test: Antiatherosclerotic activity in high-fat diet fed ApoE knockout C57BL/6 mouse assessed as reduction in atherosclerotic plaque size in aortic root at 30 mg/kg, IG for 8 weeks by Oil Red O staining based imaging analysis; type: functional, organism-based
Mus musculus [20] = test: Antiatherosclerotic activity in high-fat diet fed ApoE knockout C57BL/6 mouse assessed as reduction in atherosclerotic plaque size in aortae en face root at 30 mg/kg, IG for 8 weeks by Oil Red O staining based imaging analysis; type: functional, organism-based
[21] = biological target: Proprotein convertase subtilisin/kexin type 9 (Homo sapiens) (UniProt Q8NBP7); test: Inhibition of PCSK9 transcriptional activity in human HepG2 cells transfected with luciferase reporter plasmid containing truncated D3 (-709 to -1 base pairs) human PCSK9 promoter region assessed as decrease in luciferase activity incubated for 24 hrs by Luciferase assay; type: cell-based
[22] = biological target: Proprotein convertase subtilisin/kexin type 9 (Homo sapiens) (UniProt Q8NBP7); test: Inhibition of PCSK9 in human HepG2 cells assessed as increase in LDL-cholesterol cellular uptake by measuring DiI fluorescence at 2.5 to 25 uM incubated for 24 hrs by Dil-LDL staining based flow cytometry analysis; type: cell-based; settings: dose 2.5-25 µM
[23] = biological target: Proprotein convertase subtilisin/kexin type 9 (Homo sapiens) (UniProt Q8NBP7); test: Inhibition of PCSK9 transcriptional activity in human HepG2 cells transfected with luciferase reporter plasmid containing truncated D4 (-440 to -1 base pairs) human PCSK9 promoter region assessed as decrease in luciferase activity incubated for 24 hrs by Luciferase assay; type: cell-based
[24] = biological target: Proprotein convertase subtilisin/kexin type 9 (Homo sapiens) (UniProt Q8NBP7); test: Inhibition of PCSK9 transcriptional activity in human HepG2 cells transfected with luciferase reporter plasmid containing truncated D1 (-1711 to -1 base pairs) human PCSK9 promoter region assessed as decrease in luciferase activity incubated for 24 hrs by Luciferase assay; type: cell-based
[25] = biological target: Proprotein convertase subtilisin/kexin type 9 (Homo sapiens) (UniProt Q8NBP7); test: Inhibition of PCSK9 transcriptional activity in human HepG2 cells transfected with luciferase reporter plasmid containing truncated D6 (-351 to -1 base pairs) human PCSK9 promoter region assessed as decrease in luciferase activity incubated for 24 hrs by Luciferase assay; type: cell-based
[26] = Acute toxicity in C57BL/6 mouse assessed as behavioral change upto 1000 mg/kg, IG and measured every day for 1 week; type: organism-based; settings: in vivo, po, 168 h, time 1 weeks
[27] = Acute toxicity in C57BL/6 mouse assessed as body weight change upto 1000 mg/kg, IG and measured every day for 1 week; type: organism-based; settings: in vivo, po, 168 h, time 1 weeks

- inhibition [1]: 18.9%
SMILES: COc1cccc(Cn2c(N[C@@H](CO)C(C)C)nc3c2c(=O)n(C)c(=O)n3C)c1

- inhibition [1]: 68.9%
SMILES: COc1cccc(Cn2c(NC[C@H](C)O)nc3c2c(=O)n(C)c(=O)n3C)c1

- inhibition [1]: 34.2%
SMILES: Cn1c(=O)c2c(nc(NCCO)n2Cc2cccc(Br)c2)n(C)c1=O

- inhibition [1]: 13.6%
SMILES: Cn1c(=O)c2c(nc(NCCO)n2CC2CCOCC2)n(C)c1=O

- inhibition [1]: 9.4%
SMILES: COc1cccc(Cn2c(N(C)CCO)nc3c2c(=O)n(C)c(=O)n3C)c1

- inhibition [1]: 2.3%
SMILES: COc1cccc(Cn2c(NCCCN(C)C)nc3c2c(=O)n(C)c(=O)n3C)c1

- inhibition [1]: 80.4%
SMILES: Cn1c(=O)c2c(nc(NCCO)n2Cc2ccccc2)n(C)c1=O
- selectivity ratio [2]: 23.1
- CC50 at 24 h [3]: 85.5 µM

- inhibition [1]: 41.4%
SMILES: COc1cccc(Cn2c(NCCCCO)nc3c2c(=O)n(C)c(=O)n3C)c1

- inhibition [1]: 91%
SMILES: Cn1c(=O)c2c(nc(NCCO)n2Cc2c(F)cccc2F)n(C)c1=O

- inhibition [1]: 17.4%
SMILES: COc1cccc(Cn2c(N3CCC(CCN(C)C)CC3)nc3c2c(=O)n(C)c(=O)n3C)c1

- inhibition [1]: 40.8%
SMILES: Cn1c(=O)c2c(nc(NCCO)n2CC(=O)c2ccccc2)n(C)c1=O

SMILES: COc1cccc(Cn2c(NCCO)nc3c2c(=O)n(C)c(=O)n3C)c1
- Activity (Mus musculus [4]): Active
- Activity (Mus musculus [5]): inactive
- selectivity ratio [2]: 16.8
- Activity (Mus musculus [6]): inactive
- LD50 at 168 h [7]: 300 mg/kg
- inhibition [1]: 89.8%
- CC50 at 24 h [3]: 45.5 µM

- inhibition [1]: 47%
SMILES: Cn1c(=O)c2c(nc(NCCO)n2Cc2ccc(Cl)cc2)n(C)c1=O

SMILES: COCCNc1nc2c(c(=O)n(C)c(=O)n2C)n1Cc1cccc(OC)c1
- inhibition [8]: Active
- Activity [9]: Non-Toxic
- fold change (FC) [10]: 1.7
- inhibition (Mus musculus [11]): Active
- Activity (Mus musculus [4]): Active
- Activity (Mus musculus [5]): Active
- inhibition [12]: inactive
- inhibition [13]: Dose-Dependent Effect
- inhibition (Mus musculus [14]): Active
- inhibition [15]: Dose-Dependent Effect
- inhibition [16]: Active
- Activity (Mus musculus [17]): Active
- Activity (Mus musculus [18]): Active
- Activity (Mus musculus [19]): Active
- Activity (Mus musculus [20]): Active
- inhibition [21]: Active
- selectivity ratio [2]: > 31.3
- Activity (Mus musculus [6]): Active
- inhibition [22]: Dose-Dependent Effect
- inhibition [23]: Active
- inhibition [24]: Active
- inhibition [25]: inactive
- Activity [26]: Non-Toxic
- LD50 at 168 h [7]: > 1000 mg/kg
- Activity [27]: Non-Toxic
- inhibition [1]: 85.7%
- CC50 at 24 h [3]: > 200 µM

- inhibition [1]: 93.1%
SMILES: Cn1c(=O)c2c(nc(NCCO)n2Cc2ccc(F)cc2)n(C)c1=O

- inhibition [1]: 60.1%
SMILES: COc1cccc(Cn2c(NCCCO)nc3c2c(=O)n(C)c(=O)n3C)c1

- inhibition [1]: 41.4%
SMILES: COC(=O)CCNc1nc2c(c(=O)n(C)c(=O)n2C)n1Cc1cccc(OC)c1

- inhibition [1]: 8.3%
SMILES: COc1cccc(Cn2c(N3CCC(N4CCCC4)CC3)nc3c2c(=O)n(C)c(=O)n3C)c1

- inhibition [1]: 37%
SMILES: COc1cccc(Cn2c(NC(CO)CO)nc3c2c(=O)n(C)c(=O)n3C)c1

- inhibition [1]: 1.7%
SMILES: COc1cc(Cn2c(NCCO)nc3c2c(=O)n(C)c(=O)n3C)cc(OC)c1

- inhibition [1]: 17%
SMILES: COc1cccc(Cn2c(N3CCSCC3)nc3c2c(=O)n(C)c(=O)n3C)c1

- inhibition [1]: 88.1%
SMILES: Cc1ccccc1Cn1c(NCCO)nc2c1c(=O)n(C)c(=O)n2C

- inhibition [1]: 11.6%
SMILES: COc1cccc(Cn2c(NCC(O)CO)nc3c2c(=O)n(C)c(=O)n3C)c1 (configuration not stated)
